From patent publication US8486863B2, “Activators of lateral root formation” (VIB VZW, priority 2006, dated 2013)

How the values were obtained:
[1] = tested on: Wild-type Arabidopsis thaliana; assay: Dose-response analysis of lateral root density and root length; assay type: in vivo; settings: for compound concentration that increased root density five times compared to controls: 10 days after germination; for Root length: at the concentration that increased root density five times (20 μM A11, 1.5 μM NAA)
Experimental: FIG. 3: Dose-response analysis of class 1 (upper panel) and class 2 (lower panel) activators. Wild-type Arabidopsis thaliana seeds were germinated under standard conditions on agar plates. After 3 days of germination, seedlings were transferred to agar plates containing compound at different concentrations. Lateral root density was measured 10 days after germination. Bars represent standard errors.
FIG. 4: Dose-response analysis of A2, A11, A12, A14 and NAA. Wild-type Arabidopsis thaliana seeds were germinated under standard conditions on agar plates. After 3 days of germination, seedlings were transferred to agar plates containing compound at different concentrations and 1% DMSO. Plants transferred to agar plates containing 1% DMSO and no compound were used as controls. Lateral root density (left panels) and root length (right panels) were measured 10 days after germination. Bars represent standard errors.
For further phenotypic analysis, all plants were grown on vertically oriented square plates (Greiner Labortechnik, Austria) with solid medium derived from standard MS medium under the same conditions. 3 DAG plants were transferred to medium supplemented with compounds and were left to grow for another 7 days. After this, root length and number of LRs were counted using ImageJ 1.34 freeware.
As a subsequent step, the phenotypic effect of the 16 selected activators was determined in a dose-response analysis in which LR density (number of LRs per cm) was quantified (FIG. 3). Based upon potency and structure, two different classes of activators could be identified.

[2] = tested on: genes involved in auxin biosynthesis, auxin transport, auxin signaling and cell cycle; assay: Q-PCR transcript profiling of roots after compound treatment; assay type: in vivo, Arabidopsis thaliana; settings: 30 μM; 6 hrs or 24 hrs treatment
Experimental: FIG. 5: Transcript profiling of roots of wild-type Arabidopsis thaliana plants after 6 hrs or 24 hrs treatment with A2 (upper panel), A14 (middle panel) or A11 (lower panel) at a concentration of 30 μM.
RNA was extracted with the RNeasy kit. Poly(dT) cDNA was prepared from […] of total RNA with Superscript III reverse transcriptase (Invitrogen) and quantified on an LightCycler 480 apparatus (Roche) with the SYBR Green I Master kit (Roche) according to the manufacturers instructions. Target quantifications were performed with specific primer pairs designed with the Beacon Designer 4.0 (Premier Biosoft International). All PCRs were performed in triplicate. […] The primers used to quantify gene expression levels were: […]
Using Q-PCR, the expression of selected genes involved in auxin biosynthesis, auxin transport, auxin signaling and cell cycle was analyzed in response to compound treatment (FIG. 5).

auxin signaling mutants [3] = assay: Effect of activators on lateral root density of auxin signaling mutants (Table 2); assay type: in vivo, Arabidopsis thaliana
Text: (§1) Afb1, Afb2, Afb3 and the triple mutant Tirlafb2afb3 were described by Dhamasiri et al. (2005). Tir1 was described by Ruegger et al., (1998); 1aa28 by Rogg et al., (2001); Tir7-1 by Ruegger et al., (1997); the Cyp79b2b3 double mutant by Ljung et al. (2005); the arf7arf19 double mutant by Fukaki et al., (2005); Aux1 by Bennett et al., (1996); Xbat32 by Nodzon et al., (2004), Axr1-12 by Timpte et al., (1995), Slr1 by Fukaki et al., 2002 and Axr3-1 by Collet et al., (2000) and the mutants were obtained from the publishing authors.
(§2) For phenotypic analysis, all mutants were grown on vertically oriented square plates (Greiner Labortechnik, Austria) with solid medium derived from standard MS medium. The plates were put in a growth chamber under continuous light (110 μE.m2.s1 photosynthetically active radiation, supplied by cool-white fluorescent tungsten tubes; Osram) at 22° C. Three days after germination, the mutant plants were transferred to medium supplemented with compounds and were left to grow for another 7 days. After this, root length and number of lateral roots were counted using ImageJ 1.34 freeware.

auxin signaling mutants [4] = assay: Effect of A12 and NAA on lateral root density and root length of auxin signaling mutants (Table 1); assay type: in vivo, Arabidopsis thaliana; design: Root length: unit not given here; settings: 3 uM
Text: as §1, §2
DMSO is used as negative control.

[5] = tir TM (Tir1afb2afb3 triple mutant)

CN1C(=O)C(=Cc2ccc(-c3cccc(C(F)(F)F)c3)o2)SC1=S [A11, 3-methyl-2-thioxo-5-({5-[3-(trifluoromethyl)phenyl]-2-furyl}methylene)-1,3-thiazolidin-4-one]
compound concentration that increased root density five times compared to controls ([1]; FIG. 4): 20 µM | Root length [1]: 0.7 times the root length of controls | potency as activator of LR development (LR density) ([1]; dose-response, FIG. 3): most potent activators of class 2 | stage of LR initiation at which the effect on gene expression is exerted [2]: late stages of LR initiation (24 h) | lateral root density (auxin signaling mutants [3]; Afb1-1, 30 uM): 20.74 LR/cm | lateral root density (auxin signaling mutants [3]; Afb2-1, 30 uM): 14.04 LR/cm | lateral root density (auxin signaling mutants [3]; Afb3-1, 30 uM): 12.99 LR/cm | lateral root density (auxin signaling mutants [3]; Arf7Arf19, 30 uM): 0.04 LR/cm | lateral root density (auxin signaling mutants [3]; Arf16, 30 uM): 8.76 LR/cm | lateral root density (auxin signaling mutants [3]; Arf17, 30 uM): 11.04 LR/cm | lateral root density (auxin signaling mutants [3]; Axrt-12, 30 uM): 12.26 LR/cm | lateral root density (auxin signaling mutants [3]; Cyp79, 30 uM): 13.74 LR/cm | lateral root density (auxin signaling mutants [3]; Iaa28-1, 30 uM): 10.36 LR/cm | lateral root density (auxin signaling mutants [3]; Tir1-1, 30 uM): 8.95 LR/cm | lateral root density (auxin signaling mutants [3]; Tir7-1, 30 uM): 43.59 LR/cm | lateral root density (auxin signaling mutants [3]; TirTM, 30 uM): 0.00 LR/cm | lateral root density (auxin signaling mutants [3]; Xbat32, 30 uM): 7.76 LR/cm

O=C(O)Cc1cccc2ccccc12 [NAA, 1-naphthylacetic acid, reference compound]
LR density response to increasing compound concentration ([1]; FIG. 4): threshold-like mechanism | compound concentration that increased root density five times compared to controls ([1]; FIG. 4): 1.5 µM | Root length [1]: 0.2 times the root length of controls | Root length (auxin signaling mutants [4]; CDKB DN): 0.42 | LR density (auxin signaling mutants [4]; Col-0): 52.98 | Root length (auxin signaling mutants [4]; Col-0): 1.08 | LR density (auxin signaling mutants [4]; Ws): 45.59 | Root length (auxin signaling mutants [4]; Ws): 0.87 | LR density (auxin signaling mutants [4]; Xbat32): 36.83 | Root length (auxin signaling mutants [4]; Xbat32): 1.33 | LR density (auxin signaling mutants [4]; afb1-1): 51.36 | Root length (auxin signaling mutants [4]; afb1-1): 0.93 | LR density (auxin signaling mutants [4]; afb2-1): 51.08 | Root length (auxin signaling mutants [4]; afb2-1): 0.87 | LR density (auxin signaling mutants [4]; afb3-1): 46.76 | Root length (auxin signaling mutants [4]; afb3-1): 0.94 | Root length (auxin signaling mutants [4]; arf7arf19 DM (double mutant)): 0.87 | Root length (auxin signaling mutants [4]; aux1): 0.93 | LR density (auxin signaling mutants [4]; axr1-12): 40.22 | Root length (auxin signaling mutants [4]; axr1-12): 1.12 | LR density (auxin signaling mutants [4]; axr5-1): 27.56 | Root length (auxin signaling mutants [4]; axr5-1): 1.27 | LR density (auxin signaling mutants [4]; cyp79b2-3 DM (double mutant)): 37.27 | Root length (auxin signaling mutants [4]; cyp79b2-3 DM (double mutant)): 1.43 | LR density (auxin signaling mutants [4]; iaa28-1): 48.10 | Root length (auxin signaling mutants [4]; iaa28-1): 0.86 | LR density (auxin signaling mutants [4]; lax3): 63.09 | Root length (auxin signaling mutants [4]; lax3): 1.02 | LR density (auxin signaling mutants [4]; msg2-1): 37.22 | Root length (auxin signaling mutants [4]; msg2-1): 1.13 | LR density (auxin signaling mutants [4]; slr-1): 0.00 | Root length (auxin signaling mutants [4]; slr-1): 0.84 | LR density (auxin signaling mutants [4]; tir1-1): 57.73 | Root length (auxin signaling mutants [4]; tir1-1): 0.99 | LR density (auxin signaling mutants [4]; tir7-1): 41.72 | Root length (auxin signaling mutants [4]; tir7-1): 0.87 | LR density (auxin signaling mutants [4]; [5]): 47.00 | Root length (auxin signaling mutants [4]; [5]): 0.80 | lateral root density (auxin signaling mutants [3]; Afb1-1, 0.1 uM): 13.49 LR/cm | lateral root density (auxin signaling mutants [3]; Afb1-1, 0.3 uM): 8.76 LR/cm | lateral root density (auxin signaling mutants [3]; Afb1-1, 1 uM): 21.43 LR/cm | lateral root density (auxin signaling mutants [3]; Afb1-1, 3 uM): 47.81 LR/cm | lateral root density (auxin signaling mutants [3]; Afb2-1, 0.1 uM): 14.57 LR/cm | lateral root density (auxin signaling mutants [3]; Afb2-1, 0.3 uM): 8.98 LR/cm | lateral root density (auxin signaling mutants [3]; Afb2-1, 1 uM): 28.72 LR/cm | lateral root density (auxin signaling mutants [3]; Afb2-1, 3 uM): 59.72 LR/cm | lateral root density (auxin signaling mutants [3]; Afb3-1, 0.1 uM): 15.27 LR/cm | lateral root density (auxin signaling mutants [3]; Afb3-1, 0.3 uM): 8.93 LR/cm | lateral root density (auxin signaling mutants [3]; Afb3-1, 1 uM): 27.72 LR/cm | lateral root density (auxin signaling mutants [3]; Afb3-1, 3 uM): 55.01 LR/cm | lateral root density (auxin signaling mutants [3]; Arf7Arf19, 0.1 uM): 0.00 LR/cm | lateral root density (auxin signaling mutants [3]; Arf7Arf19, 0.3 uM): 0.00 LR/cm | lateral root density (auxin signaling mutants [3]; Arf7Arf19, 1 uM): 0.17 LR/cm | lateral root density (auxin signaling mutants [3]; Arf7Arf19, 3 uM): 13.18 LR/cm | lateral root density (auxin signaling mutants [3]; Arf16, 0.1 uM): 8.05 LR/cm | lateral root density (auxin signaling mutants [3]; Arf16, 0.3 uM): 6.63 LR/cm | lateral root density (auxin signaling mutants [3]; Arf16, 1 uM): 10.83 LR/cm | lateral root density (auxin signaling mutants [3]; Arf16, 3 uM): 17.17 LR/cm | lateral root density (auxin signaling mutants [3]; Arf17, 0.1 uM): 6.57 LR/cm | lateral root density (auxin signaling mutants [3]; Arf17, 0.3 uM): 10.34 LR/cm | lateral root density (auxin signaling mutants [3]; Arf17, 1 uM): 0.47 LR/cm | lateral root density (auxin signaling mutants [3]; Arf17, 3 uM): 24.68 LR/cm | lateral root density (auxin signaling mutants [3]; Axrt-12, 0.1 uM): 8.04 LR/cm | lateral root density (auxin signaling mutants [3]; Axrt-12, 0.3 uM): 9.25 LR/cm | lateral root density (auxin signaling mutants [3]; Axrt-12, 1 uM): 9.03 LR/cm | lateral root density (auxin signaling mutants [3]; Axrt-12, 3 uM): 27.55 LR/cm | lateral root density (auxin signaling mutants [3]; Cyp79, 0.1 uM): 15.83 LR/cm | lateral root density (auxin signaling mutants [3]; Cyp79, 0.3 uM): 6.85 LR/cm | lateral root density (auxin signaling mutants [3]; Cyp79, 1 uM): 22.20 LR/cm | lateral root density (auxin signaling mutants [3]; Cyp79, 3 uM): 50.78 LR/cm | lateral root density (auxin signaling mutants [3]; Iaa28-1, 0.1 uM): 3.57 LR/cm | lateral root density (auxin signaling mutants [3]; Iaa28-1, 0.3 uM): 7.46 LR/cm | lateral root density (auxin signaling mutants [3]; Iaa28-1, 1 uM): 11.92 LR/cm | lateral root density (auxin signaling mutants [3]; Iaa28-1, 3 uM): 40.09 LR/cm | lateral root density (auxin signaling mutants [3]; Tir1-1, 0.1 uM): 5.14 LR/cm | lateral root density (auxin signaling mutants [3]; Tir1-1, 0.3 uM): 11.34 LR/cm | lateral root density (auxin signaling mutants [3]; Tir1-1, 1 uM): 6.74 LR/cm | lateral root density (auxin signaling mutants [3]; Tir1-1, 3 uM): 18.30 LR/cm | lateral root density (auxin signaling mutants [3]; Tir7-1, 0.1 uM): 15.76 LR/cm | lateral root density (auxin signaling mutants [3]; Tir7-1, 0.3 uM): 5.78 LR/cm | lateral root density (auxin signaling mutants [3]; Tir7-1, 1 uM): 14.79 LR/cm | lateral root density (auxin signaling mutants [3]; Tir7-1, 3 uM): 46.33 LR/cm | lateral root density (auxin signaling mutants [3]; TirTM, 0.1 uM): 8.04 LR/cm | lateral root density (auxin signaling mutants [3]; TirTM, 0.3 uM): 18.89 LR/cm | lateral root density (auxin signaling mutants [3]; TirTM, 1 uM): 15.81 LR/cm | lateral root density (auxin signaling mutants [3]; TirTM, 3 uM): 45.09 LR/cm | lateral root density (auxin signaling mutants [3]; Xbat32, 0.1 uM): 4.27 LR/cm | lateral root density (auxin signaling mutants [3]; Xbat32, 0.3 uM): 9.26 LR/cm | lateral root density (auxin signaling mutants [3]; Xbat32, 1 uM): 12.70 LR/cm | lateral root density (auxin signaling mutants [3]; Xbat32, 3 uM): 33.67 LR/cm
